Test results: patent US20080287479A1, “INHIBITORS OF SERINE PALMITOYLTRANSFERASE” (Pfizer Inc, priority 2006, published 2008)
Counter-ions that a name gives are not always drawn. Like-named read-outs stand apart in the source and are kept apart here.

Biological target: T1, Serine Palmitoyl Transferase (SPT); microsomes from HEK 293 cells stably transfected with human LCB2 subunit of SPT (Homo sapiens, UniProt O15270)
T1 construct: expressed in transfected cells; host or cells: HEK 293 cells stably transfected with LCB2; microsomal fraction
T1 sequence (O15270 1-562): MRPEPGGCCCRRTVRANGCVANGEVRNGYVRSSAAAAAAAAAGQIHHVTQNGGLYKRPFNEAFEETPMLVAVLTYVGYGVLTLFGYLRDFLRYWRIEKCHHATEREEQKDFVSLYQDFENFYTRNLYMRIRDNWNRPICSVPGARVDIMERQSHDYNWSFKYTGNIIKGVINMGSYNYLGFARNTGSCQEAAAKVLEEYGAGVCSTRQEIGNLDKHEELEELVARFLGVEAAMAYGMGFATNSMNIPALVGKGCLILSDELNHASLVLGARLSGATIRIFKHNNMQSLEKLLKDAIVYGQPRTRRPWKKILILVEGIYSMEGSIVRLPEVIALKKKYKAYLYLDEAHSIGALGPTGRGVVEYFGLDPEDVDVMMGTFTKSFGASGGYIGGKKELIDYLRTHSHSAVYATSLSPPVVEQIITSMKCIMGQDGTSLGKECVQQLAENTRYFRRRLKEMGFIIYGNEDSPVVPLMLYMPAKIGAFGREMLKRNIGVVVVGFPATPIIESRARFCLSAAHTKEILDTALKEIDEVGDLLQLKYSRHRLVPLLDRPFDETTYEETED
T1 sequence (O15269 1-473 partner): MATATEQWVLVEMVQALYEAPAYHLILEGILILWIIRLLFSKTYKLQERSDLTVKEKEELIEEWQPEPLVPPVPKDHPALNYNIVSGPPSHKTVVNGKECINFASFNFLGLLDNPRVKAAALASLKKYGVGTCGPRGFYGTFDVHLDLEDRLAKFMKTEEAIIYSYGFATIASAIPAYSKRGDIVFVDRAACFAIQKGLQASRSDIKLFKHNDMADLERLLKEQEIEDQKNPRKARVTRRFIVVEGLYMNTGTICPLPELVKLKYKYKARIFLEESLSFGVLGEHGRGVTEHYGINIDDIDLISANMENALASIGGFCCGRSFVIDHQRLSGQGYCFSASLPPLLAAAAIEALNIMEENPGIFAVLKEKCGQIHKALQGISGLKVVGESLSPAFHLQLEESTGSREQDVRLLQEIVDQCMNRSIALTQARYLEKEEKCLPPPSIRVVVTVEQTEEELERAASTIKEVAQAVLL
T1 sequence (Q969W0 1-71 partner): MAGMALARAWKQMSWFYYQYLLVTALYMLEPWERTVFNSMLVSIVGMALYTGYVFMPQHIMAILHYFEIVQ
Assay: SPT flashplate assay
Assay type: biochemical

[1] = microsomes of HEK 293 LCB2 cells, 3H-serine and palmitoyl CoA, phospholipid coated flashplate, 18-24 hours at room temperature, read-out: SPTISF IC50

SMILES	IC50 [1]	IC50 (SPTISF IC50 (nM))
CC1(C)CCN(C(=O)CN2CCC(n3c(=O)[nH]c4cc(S(C)(=O)=O)ccc43)CC2)CC1 [Example 39, 1-{1-[2-(4,4-dimethylpiperidin-1-yl)-2-oxoethyl]piperidin-4-yl}-5-(methylsulfonyl)-1,3-dihydro-2H-benzimidazol-2-one]	47.9 nM	
CNC(=O)c1ccc2c(c1)CC(=O)N2C1CCN(CC(=O)N2CCC(C)(C)CC2)CC1 [Example 23, 1-[2-(4,4-dimethylpiperidin-1-yl)-2-oxoethyl]-4-{5-[(methylamino)carbonyl]-2-oxo-2,3-dihydro-1H-indol-1-yl}piperidinium chloride]		8.4 nM
CS(=O)(=O)c1ccc2c(c1)[nH]c(=O)n2C1CCN(CC(=O)C2CCCCC2)CC1 [Example 41, 1-[1-(2-cyclohexyl-2-oxoethyl)piperidin-4-yl]-5-(methylsulfonyl)-1,3-dihydro-2H-benzimidazol-2-one]	365 nM	
CNC(=O)c1cc2[nH]c(=O)n(C3CCN(CC(=O)C4CCC(C(C)(C)C)CC4)CC3)c2cc1F (stereo not shown) [Example 14, 1-{1-[2-(4-tert-butylcyclohexyl)-2-oxoethyl]piperidin-4-yl}-6-fluoro-N-methyl-2-oxo-2,3-dihydro-1H-benzimidazole-5-carboxamide]	106 nM	
CCc1ccc(C(=O)CN2CCC(n3c(=O)[nH]c4cc(C(=O)NC)c(F)cc43)CC2)cc1 [Example 9, 1-[2-(4-ethylphenyl)-2-oxoethyl]-4-{6-fluoro-5-[(methylamino)carbonyl]-2-oxo-2,3-dihydro-1H-benzimidazol-1-yl}piperidinium chloride]		6.2 nM
CNC(=O)c1cc2[nH]c(=O)n(C3CCN(CC(=O)C4CCC(C)(OC)CC4)CC3)c2cc1F (stereo not shown) [Example 16, 6-fluoro-1-{1-[2-(4-methoxy-4-methylcyclohexyl)-2-oxoethyl]piperidin-4-yl}-N-methyl-2-oxo-2,3-dihydro-1H-benzimidazole-5-carboxamide]	53 nM	
CNC(=O)c1cc2c(cc1F)N(C1CCN(CC(=O)N3C[C@H]4CCC[C@H]4C3)CC1)C(=O)C2 [Example 21, 4-{6-fluoro-5-[(methylamino)carbonyl]-2-oxo-2,3-dihydro-1H-indol-1-yl}-1-{2-[(3aR,6aS)-hexahydrocyclopenta[c]pyrrol-2(1H)-yl]-2-oxoethyl}piperidinium chloride]		14.6 nM
CNC(=O)c1cc2[nH]c(=O)n(C3CCN(CC(=O)C4CCC(F)(F)CC4)CC3)c2cc1F [Example 12, 1-{1-[2-(4,4-difluorocyclohexyl)-2-oxoethyl]piperidin-4-yl}-6-fluoro-N-methyl-2-oxo-2,3-dihydro-1H-benzimidazole-5-carboxamide]	5.3 nM	
CNC(=O)c1cc2[nH]c(=O)n(C3CCN(CC(=O)N4CCC(C)(C)CC4)CC3)c2cc1F [Example 26, 1-[2-(4,4-dimethylpiperidin-1-yl)-2-oxoethyl]-4-{6-fluoro-5-[(methylamino)carbonyl]-2-oxo-2,3-dihydro-1H-benzimidazol-1-yl}piperidinium chloride]	7.5 nM	
CNC(=O)c1ccc2c(c1)CC(=O)N2C1CCN(CC(=O)N2CCC(C)(OC)CC2)CC1 [Example 19, 1-[2-(4-methoxy-4-methylpiperidin-1-yl)-2-oxoethyl]-4-{5-[(methylamino)carbonyl]-2-oxo-2,3-dihydro-1H-indol-1-yl}piperidinium chloride]		18.7 nM
CC1(C(=O)CN2CCC(n3c(=O)[nH]c4cc(S(C)(=O)=O)ccc43)CC2)CCCCC1 [Example 48, 1-{1-[2-(1-methylcyclohexyl)-2-oxoethyl]piperidin-4-yl}-5-(methylsulfonyl)-1,3-dihydro-2H-benzimidazol-2-one]	4400 nM	
CNC(=O)c1cc2[nH]c(=O)n(C3CCN(CC(=O)C4CCC(C(F)(F)F)CC4)CC3)c2cc1F (stereo not shown) [Example 15, 6-fluoro-N-methyl-2-oxo-1-(1-{2-oxo-2-[4(trifluoromethyl)cyclohexyl]ethyl}piperidin-4-yl)-2,3-dihydro-1H-benzimidazole-5-carboxamide]	9.5 nM	
CNC(=O)c1cc2[nH]c(=O)n(C3CCN(CC(=O)N4CCC(C)(OC)CC4)CC3)c2cc1F [Example 32, 6-fluoro-1-{1-[2-(4-methoxy-4-methylpiperidin-1-yl)-2-oxoethyl]piperidin-4-yl}-N-methyl-2-oxo-2,3-dihydro-1H-benzimidazole-5-carboxamide]	26 nM	
CNC(=O)c1cc2[nH]c(=O)n(C3CCN(CC(=O)N4C[C@H]5CCC[C@H]5C4)CC3)c2cc1F [Example 31, 6-fluoro-1-(1-{2-[(3aR,6aS)-hexahydrocyclopenta[c]pyrrol-2(1H)-yl]-2-oxoethyl}piperidin-4-yl)-N-methyl-2-oxo-2,3-dihydro-1H-benzimidazole-5-carboxamide]	14.7 nM	
CC(C)(C)C1CCC(C(=O)CN2CCC(n3c(=O)[nH]c4cc(S(C)(=O)=O)ccc43)CC2)CC1 (stereo not shown) [Example 45, 1-{1-[2-(4-tert-butylcyclohexyl)-2-oxoethyl]piperidin-4-yl}-5-(methylsulfonyl)-1,3-dihydro-2H-benzimidazol-2-one]	333 nM	
CCC1(C)CCN(C(=O)CN2CCC(n3c(=O)[nH]c4cc(C(=O)NC)c(F)cc43)CC2)CC1 [Example 27, 1-{1-[2-(4-ethyl-4-methylpiperidin-1-yl)-2-oxoethyl]piperidin-4-yl}-6-fluoro-N-methyl-2-oxo-2,3-dihydro-1H-benzimidazole-5-carboxamide]	6 nM	
CNC(=O)c1ccc2c(c1)CC(=O)N2C1CCN(CC(=O)N2C[C@H]3CCC[C@H]3C2)CC1 [Example 20, 1-{2-[(3aR,6aS)-hexahydrocyclopenta[c]pyrrol-2(1H)-yl]-2-oxoethyl}-4-{5-[(methylamino)carbonyl]-2-oxo-2,3-dihydro-1H-indol-1-yl}piperidinium hydrogen sulfate]		11.4 nM
COC1CCC(C(=O)CN2CCC(n3c(=O)[nH]c4cc(S(C)(=O)=O)ccc43)CC2)CC1 (stereo not shown) [Example 43, 1-{1-[2-(4-methoxycyclohexyl)-2-oxoethyl]piperidin-4-yl}-5-(methylsulfonyl)-1,3-dihydro-2H-benzimidazol-2-one]	301 nM	
CNC(=O)c1cc2[nH]c(=O)n(C3CCN(CC(=O)N4CC5CCC(CC5)C4)CC3)c2cc1F [Example 30, 1-{1-[2-(3-azabicyclo[3.2.2]non-3-yl)-2-oxoethyl]piperidin-4-yl}-6-fluoro-N-methyl-2-oxo-2,3-dihydro-1H-benzimidazole-5-carboxamide]	14.5 nM	
CNC(=O)c1cc2[nH]c(=O)n(C3CC4CCC(C3)N4CC(=O)N3CCC(C)(OC)CC3)c2cc1F (stereo not shown) [Example 49, 6-fluoro-1-{8-[2-(4-methoxy-4-methylpiperidin-1-yl)-2-oxoethyl]-8-azabicyclo[3.2.1]oct-3-yl}-N-methyl-2-oxo-2,3-dihydro-1H-benzimidazole-5-carboxamide trifluloroacetate]	165 nM	
CC1CCC(C(=O)CN2CCC(n3c(=O)[nH]c4cc(S(C)(=O)=O)ccc43)CC2)CC1 (stereo not shown) [Example 42, 1-{1-[2-(4-methylcyclohexyl)-2-oxoethyl]piperidin-4-yl}-5-(methylsulfonyl)-1,3-dihydro-2H-benzimidazol-2-one]	59 nM	
CNC(=O)c1ccc2c(c1)CC(=O)N2C1CCN(CC(=O)N2CCC3(CC2)CC3)CC1 [Example 25, 1-[2-6-azaspiro[2.5]oct-6-yl)-2-oxoethyl]-4-{5-[(methylamino)carbonyl]-2-oxo-2,3-dihydro-1H-indol-1-yl}piperidinium chloride]		2.64 nM
C=C1CCN(C(=O)CN2CCC(n3c(=O)[nH]c4cc(C(=O)NC)c(F)cc43)CC2)CC1 [Example 29, 6-fluoro-N-methyl-1-{1-[2-(4-methylonepiperidin-1-yl)-2-oxoethyl]piperidin-4-yl}-2-oxo-2,3-dihydro-1H-benzimidazole-5-carboxamide]	9.4 nM	
CNC(=O)c1cc2[nH]c(=O)n(C3CCN(CC(=O)C4(C)CCCCC4)CC3)c2cc1F [Example 17, 6-fluoro-N-methyl-1-{1-[2-(1-methylcyclohexyl)-2-oxoethyl]piperidin-4-yl}-2-oxo-2,3-dihydro-1H-benzimidazole-5-carboxamide]	7.14 nM	
CC1(C)CCN(C(=O)CN2CCC(n3c(=O)[nH]c4cc(S(C)(=O)=O)ccc43)CC2)CC1 [Example 40, 1-{1-[2-(4,4-dimethylpiperidin-1-yl)-2-oxoethyl]piperidin-4-yl}-5-(methylsulfonyl)-1,3-dihydro-2H-benzimidazol-2-one hydrochloride]	12.9 nM	
